Assay results taken from US20120172401A1, “BENZIMIDAZOLE DERIVATIVE AND USE AS ANGIOTENSIN II ANTAGONIST” (Takeda Pharmaceutical Company Limited, priority 2005, published 2012).
In brackets after ≈: the same amount, converted by molar mass. Like-named read-outs stand apart in the source and are kept apart here.

How the values were obtained:
[1] = tested on: Angiotensin II (AII)-induced vasopressor action; test: Inhibitory effect on angiotensin II (AII)-induced vasopressor action in rat; type: in vivo; conditions: male SD rats, AII 100 ng/kg i.v., p.o., mean±SEM
Procedure: 11-Week-old male SD rats (JCL: SD, CLEA Japan, Inc.) were anesthetized with pentobarbital (50 mg/kg, i.p.), the femoral artery and femoral vein were isolated, and a polyethylene tube filled with physiological saline containing heparin (200 U/mL) was placed therein. The catheter was subcutaneously fixed in the back of the neck. After recovery period, the rats were subjected to the test.
The arterial catheter was connected to a pressure transducer (2238, NEC San-ei Instruments) and the signals were output on a pen recorder (RECTI-HORIZ 8K, NEC San-ei Instruments) via an amplifier for blood pressure. After the vasopressor action of AII (100 ng/kg, i.v.) was stabilized, a test compound in an equimolar dose to compound A was administered. After 24 hrs, AII was administered, an increase in the blood pressure was measured, and an inhibition rate relative to the value before drug administration was calculated. All compounds were suspended in 0.5% methylcellulose and orally administered at a volume of 2 mL/kg.
The results are shown as mean±SEM (Table 6). The significance between the compound (I) administration group and other compound administration group was determined by the Student's t test (**: p<0.01, *: p<0.05).

[2] = tested on: insulin sensitivity; test: Enhancing effect on insulin sensitivity in rat (glucose clamp technique); type: in vivo; conditions: spontaneously hypertensive rats, p.o. for 2 weeks, average glucose injection rate 50-90 min, mean±SEM
Procedure: 24-Week-old male spontaneously hypertensive rats (SLC: SHR/Izm, Japan SLC, Inc.) were used. The body weight, systolic blood pressure, fasting blood glucose level, plasma insulin level and plasma triglyceride level of the rats were measured, and the rats were divided into a vehicle (0.5% methylcellulose solution) administration group and compound (I) (0.12, 0.37 and 1.23 mg/kg) administration groups using them as indices. Compound (I) was suspended in 0.5% methylcellulose solution and orally administered at a volume of 2 mL/kg for 2 weeks.
The insulin sensitivity was evaluated by the glucose clamp technique. To be specific, the rats after fasting overnight were anesthetized with pentobarbital sodium (Nembutal injection, Dainippon Pharmaceutical Co. Ltd., 50 mg/kg i.p.), and catheters (SP45, Natume Seisakusho Co., Ltd.) for blood sampling, insulin (novolin R/100, Novo Nordisk Pharma Co., Ltd.) infusion and glucose (Otsuka Glucose Injection 50%, Otsuka Pharmaceutical Co., Ltd.) infusion were each placed in the right common carotid artery, left femoral vein and right femoral vein. After single intravenous injection of 25 mU/kg of insulin, high insulin state was maintained by infusion using an infusion pump (KDS100, KDS) at an injection rate of 4 mU/kg/min. In addition, glucose in an amount necessary for maintaining the normal blood glucose level was intravenously infused using a different infusion pump (KDS100, KDS). Intravenous injection of glucose was started from 10 min after the start of the injection of insulin, and the glucose injection rate was changed after blood glucose measurement performed every 5 min. The blood glucose level then was quickly measured using a simple blood glucose measurement apparatus (ACCU-CHEK Comfort, Roche diagnostics). Glucose was infused for 90 min., the average value of the glucose injection rate was calculated for 40 min (from 50 min. to 90 min. after the start of the injection) and used as an index (M value) of insulin sensitivity.
The results are shown as mean±SEM (Table 7). […]

[3] = Membrane permeability by Parallel Artificial Membrane Permeability Assay (PAMPA); type: in vitro ADME; conditions: for Papp at 3 h, 50 gmol/L: PAMPA; for permeability in comparison with compound X: in words
Procedure: The permeability with the artificial membrane was determined by PAMPA under the following conditions. • lipid membrane: GIT mode (pION) • measurement wavelength: 250-400 nm • incubation time: 3 hrs • incubation temperature: 25° C. • Donor: […] 50 gmol/L

[4] = Solubility in JP1, JP2 and GCDC/JP2; type: physicochemical; conditions: for solubility in comparison with compound X: in words; for solubility at 2 h: thermodynamic from solid, 37° C.
Procedure: About 2 mg of samples were suspended in 2 mL of JP1, JP2 and 20 mmol/L GCDC/JP2. The suspension was equilibrated at 37° C. for 2 hrs and filtered. The concentration in the solutions was determined by HPLC under the following conditions.
• Detector: UV 254 nm • Column: CAPCELLPAK C18 MG 75×4.6 mm • Mobile Phase A: 0.05 mol/L ammonium formate buffer (pH 3)/MeCN=9:1 • Mobile Phase B: 0.05 mol/L ammonium formate buffer (pH 3)/MeCN=1:9 • Gradient Program: 0→10 min 0→100% B) • 10→15 min 100% B) • 15.1→20 min 0% B) • Column Temp.: 40° C. • Flow Rate: 1 mL/min • Injection vol.: 10 gL

[5] = Heat stability of Form A crystal; type: physicochemical; conditions: in words
[6] = pH 5.5, GIT mode lipid membrane, 3 hrs, 25° C., read-out: PAMPA pH 5.5
[7] = pH 6.2, GIT mode lipid membrane, 3 hrs, 25° C., read-out: PAMPA PH 6.2
[8] = pH 1.2, simulated gastric fluid, JP1, read-out: Solubility JP1
[9] = pH 6.8, fassgf or other biorelevant, 20 mmol/L GCDC/JP2, read-out: Solubility GCDC/JP2
[10] = pH 6.8, fassgf or other biorelevant, JP2, read-out: Solubility JP2
[11] = pH 7.4, GIT mode lipid membrane, 3 hrs, 25° C., read-out: PAMPA PH 7.4

Row | Papp at 3 h, 50 gmol/L [3, 6] [×10⁻⁶ cm/s] | Papp at 3 h, 50 gmol/L [3, 7] [×10⁻⁶ cm/s] | permeability in comparison with compound X [3] | PAMPA PH 7.4 ([3]; pH 7.4, GIT mode lipid membrane, 3 hrs, 25° C.) [nm/s] | solubility in comparison with compound X [4] | solubility at 2 h [4, 8] [µg/mL] | solubility at 2 h [4, 9] [µg/mL] | solubility at 2 h [4, 10] [µg/mL] | Papp at 3 h, 50 gmol/L [3, 11] [×10⁻⁶ cm/s] | stability to heat [5] | SMILES | suppression rate at 24 hrs after administration ([1]; 0.12 mg/kg) [%] | M value ([2]; 0.12 mg/kg) | M value ([2]; 0.37 mg/kg) | M value ([2]; 1.23 mg/kg) | suppression rate at 24 hrs after administration ([1]; 0.10 mg/kg) [%]
1 | – | – | – | – | – | – | – | – | – | – | Cc1oc(=O)oc1COC(=O)c1cccc2nc(C3CC3)n(Cc3ccc(-c4ccccc4-c4noc(=O)[nH]4)cc3)c12 [Compound (I), (5-Methyl-2-oxo-1,3-dioxol-4-yl)methyl 2-cyclopropyl-1-{[2′-(5-oxo-4,5-dihydro-1,2,4-oxadiazol-3-yl)biphenyl-4-yl]methyl}-1H-benzimidazole-7-carboxylate] | 20.2 | 8.2 | 9.0 | 9.8 | –
2 | 13 | 0.63 | less permeable | 0 | soluble | 130 (≈ 287 µM) | 680 (≈ 1500 µM) | 470 (≈ 1040 µM) | – | – | O=C(O)c1cccc2nc(C3CC3)n(Cc3ccc(-c4ccccc4-c4noc(=O)[nH]4)cc3)c12 [Compound A, 2-cyclopropyl-1-{[2′-(5-oxo-4,5-dihydro-1,2,4-oxadiazol-3-yl)biphenyl-4-yl]methyl}-1H-benzimidazole-7-carboxylic acid] | – | – | – | – | −6.0
3 | 46 | 20 | permeable | – | less soluble | 160 (≈ 343 µM) | 27 (≈ 57.9 µM) | 2.8 (≈ 6 µM) | 8.9 | – | COC(=O)c1cccc2nc(C3CC3)n(Cc3ccc(-c4ccccc4-c4noc(=O)[nH]4)cc3)c12 [Compound B, methyl 2-cyclopropyl-1-{[2′-(5-oxo-4,5-dihydro-1,2,4-oxadiazol-3-yl)biphenyl-4-yl]methyl}-1H-benzimidazole-7-carboxylate] | – | – | – | – | 2.6
4 | 21 | 19 | – | – | – | 27 (≈ 47.8 µM) | 52 (≈ 92.1 µM) | 8.3 (≈ 14.7 µM) | 9.5 | stable to heat | Cc1oc(=O)oc1COC(=O)c1cccc2nc(C3CC3)n(Cc3ccc(-c4ccccc4-c4noc(=O)[nH]4)cc3)c12 [Compound X, crystal of (5-methyl-2-oxo-1,3-dioxol-4-yl)methyl 2-cyclopropyl-1-{[2′-(5-oxo-4,5-dihydro-1,2,4-oxadiazol-3-yl)biphenyl-4-yl]methyl}-1H-benzimidazole-7-carboxylate] | – | – | – | – | –
